Tests used:
Format in all cases: toxicity, cell-based
[1] = system: Fibroblast; assay: Incucyte cell viability with human fibroblast; conditions: 10 µM, compound concentration 10 uM
[2] = system: U2OS; assay: Incucyte cell viability with U2OS; conditions: human, 10 µM, compound concentration 10 uM
[3] = system: HEK-293T; assay: Incucyte cell viability with HEK293T; conditions: human, 10 µM, compound concentration 10 uM
[4] = 0 h, replicate number 2, timepoint 0 hours
[5] = 6 h, replicate number 1, timepoint 6 hours
[6] = 12 h, replicate number 1, timepoint 12 hours
[7] = 12 h, replicate number 2, timepoint 12 hours
[8] = 18 h, replicate number 2, timepoint 18 hours
[9] = 24 h, replicate number 1, timepoint 24 hours
[10] = 24 h, replicate number 2, timepoint 24 hours
[11] = 0 h, replicate number 1, timepoint 0 hours
[12] = 18 h, replicate number 1, timepoint 18 hours
[13] = 6 h, replicate number 2, timepoint 6 hours
Further: unitless GR value; below 1 slowed growth and below 0 cell loss.

CN[C@@H](C)C(=O)N[C@H]1CCCC[C@H]2CC[C@@H](C(=O)N[C@@H](c3ccccc3)c3cn(CCCCc4ccc(CCCCn5cc([C@@H](NC(=O)[C@@H]6CC[C@@H]7CCCC[C@H](NC(=O)[C@H](C)NC)C(=O)N76)c6ccccc6)nn5)cc4)nn3)N2C1=O
Growth Rate [1, 4]: 0.01 | Growth Rate [1, 5]: 0.17 | Growth Rate [1, 6]: 0.57 | Growth Rate [1, 7]: 0.75 | Growth Rate [1, 8]: 0.88 | Growth Rate [1, 9]: 0.71 | Growth Rate [1, 10]: 0.81 | Growth Rate [2, 11]: -0.18 | Growth Rate [2, 5]: 0.83 | Growth Rate [2, 12]: 0.97 | Growth Rate [2, 9]: 1 | Growth Rate [3, 11]: 0.2 | Growth Rate [3, 4]: 0.49 | Growth Rate [3, 5]: 0.5 | Growth Rate [3, 13]: 0.74 | Growth Rate [3, 6]: 0.73 | Growth Rate [3, 7]: 0.75 | Growth Rate [3, 12]: 0.93 | Growth Rate [3, 8]: 0.8 | Growth Rate [3, 9]: 0.66 | Growth Rate [3, 10]: 0.84

CCCCOCCOc1nc(-c2ccc(C(=O)O)c(F)c2)sc1C
Growth Rate [1, 4]: -0.25 | Growth Rate [1, 5]: 0.05 | Growth Rate [1, 6]: 0.16 | Growth Rate [1, 7]: 0.63 | Growth Rate [1, 12]: 0.35 | Growth Rate [1, 8]: 0.73 | Growth Rate [1, 9]: 0.23 | Growth Rate [1, 10]: 0.7 | Growth Rate [2, 11]: -0.03 | Growth Rate [2, 4]: -0.3 | Growth Rate [2, 5]: 0.21 | Growth Rate [2, 13]: 0.97 | Growth Rate [2, 6]: 0.49 | Growth Rate [2, 12]: 0.88 | Growth Rate [2, 8]: 0.86 | Growth Rate [2, 9]: 0.94 | Growth Rate [2, 10]: 0.84 | Growth Rate [3, 11]: 0.61 | Growth Rate [3, 4]: 0.25 | Growth Rate [3, 13]: 0.87 | Growth Rate [3, 7]: 0.88 | Growth Rate [3, 12]: 0.94 | Growth Rate [3, 8]: 0.82 | Growth Rate [3, 9]: 0.95 | Growth Rate [3, 10]: 0.69

O=C1[C@H](Cc2ccc(O)cc2)N2C(=O)CCN(C(=O)NCc3ccccc3)[C@H]2CN1Cc1cccc2ccccc12
Growth Rate [1, 11]: 0.78 | Growth Rate [1, 4]: 0.82 | Growth Rate [1, 5]: -0.77 | Growth Rate [1, 13]: 0.03 | Growth Rate [1, 6]: -0.6 | Growth Rate [1, 7]: -0.16 | Growth Rate [1, 12]: -0.71 | Growth Rate [1, 8]: -0.07 | Growth Rate [1, 9]: -0.54 | Growth Rate [1, 10]: -0.02 | Growth Rate [2, 11]: -0.65 | Growth Rate [2, 4]: 0.18 | Growth Rate [2, 5]: 0.4 | Growth Rate [2, 13]: 0.87 | Growth Rate [2, 6]: 0.14 | Growth Rate [2, 7]: 0.6 | Growth Rate [2, 12]: 0.11 | Growth Rate [2, 8]: 0.51 | Growth Rate [2, 9]: 0.3 | Growth Rate [2, 10]: 0.57 | Growth Rate [3, 11]: 0.98 | Growth Rate [3, 4]: 0.37 | Growth Rate [3, 5]: -0.42 | Growth Rate [3, 13]: -0.2 | Growth Rate [3, 6]: -0.35 | Growth Rate [3, 7]: -0.29 | Growth Rate [3, 12]: -0.29 | Growth Rate [3, 8]: -0.22 | Growth Rate [3, 9]: -0.24 | Growth Rate [3, 10]: -0.21

Cc1sc2c(c1C)C(c1ccc(Cl)cc1)=N[C@H](CC(=O)OC(C)(C)C)c1nnc(C)n1-2
Growth Rate [1, 5]: -0.25 | Growth Rate [1, 6]: 0.45 | Growth Rate [1, 12]: 0.98 | Growth Rate [1, 9]: 0.98 | Growth Rate [2, 5]: 0.83 | Growth Rate [2, 6]: 0.95 | Growth Rate [2, 12]: 0.97 | Growth Rate [2, 9]: 0.92 | Growth Rate [3, 11]: 0.38 | Growth Rate [3, 4]: 0.63 | Growth Rate [3, 7]: 0.95 | Growth Rate [3, 12]: 0.85 | Growth Rate [3, 8]: 0.87 | Growth Rate [3, 9]: 0.81 | Growth Rate [3, 10]: 0.86

CCc1cc2cc(NS(=O)(=O)c3ccc(C#N)cc3)ccc2n(CC)c1=O
Growth Rate [1, 11]: 0.94 | Growth Rate [1, 5]: 0.31 | Growth Rate [1, 13]: -0.17 | Growth Rate [1, 6]: 0.22 | Growth Rate [1, 7]: 0.12 | Growth Rate [1, 12]: 0.07 | Growth Rate [1, 8]: 0.13 | Growth Rate [1, 9]: -0.17 | Growth Rate [1, 10]: 0.07 | Growth Rate [2, 11]: -0.59 | Growth Rate [2, 4]: -0.07 | Growth Rate [2, 5]: 0.95 | Growth Rate [2, 7]: 0.85 | Growth Rate [2, 12]: 0.95 | Growth Rate [2, 8]: 0.93 | Growth Rate [2, 9]: 0.96 | Growth Rate [3, 11]: 1 | Growth Rate [3, 4]: 0.08 | Growth Rate [3, 5]: 0.21 | Growth Rate [3, 6]: 0.34 | Growth Rate [3, 7]: 0.96 | Growth Rate [3, 12]: 0.23 | Growth Rate [3, 8]: 0.84 | Growth Rate [3, 9]: 0.13 | Growth Rate [3, 10]: 0.59

CN(C)C(=O)Cn1cc(-c2ccc(-c3cncc4ccccc34)cc2)cn1
Growth Rate [1, 6]: 0.27 | Growth Rate [1, 7]: 1 | Growth Rate [1, 12]: 0.21 | Growth Rate [1, 8]: 0.82 | Growth Rate [1, 9]: 0.05 | Growth Rate [1, 10]: 0.61 | Growth Rate [2, 11]: -0.34 | Growth Rate [2, 4]: 0.27 | Growth Rate [2, 5]: 0.31 | Growth Rate [2, 13]: 0.79 | Growth Rate [2, 6]: 0.43 | Growth Rate [2, 7]: 0.74 | Growth Rate [2, 12]: 0.59 | Growth Rate [2, 8]: 0.76 | Growth Rate [2, 9]: 0.7 | Growth Rate [2, 10]: 0.86 | Growth Rate [3, 11]: 0.84 | Growth Rate [3, 6]: 0.97 | Growth Rate [3, 12]: 0.9 | Growth Rate [3, 9]: 0.9

Reference: ChEMBL document CHEMBL5058564, “EUbOPEN Chemogenomics Library 2 (Incucyte)” (2022)
